Data: US8008354B2, “Death receptor sensitizing compounds and methods of use therefor” (Burnham Institute for Medical Research, priority 2006, dated 2011)
Where a name gives a salt, the structure may show the parent alone. Read-outs that look alike come from different tables or passages of the source.

What was measured:
[1] = system: FLIP; settings: previously shown (Kim et al., 2002); cited from earlier work
[2] = system: PPC-1 cells; experiment: MTT viability of PPC-1 cells with extrinsic (CH-11, TRAIL) or intrinsic (VP-16, staurosporine) pathway stimuli; format: cell-based, human; settings: CH-11, TRAIL versus VP-16, STS, MTT 24 hours
Protocol: FIG. 4. Small molecules selectively sensitize to extrinsic pathway stimuli. PPC-1 cells (1×10^4) were seeded overnight in 96 well plates. The next day, cells were treated with increasing concentrations of 6094911, 5809354, 5703229, or 5569100 in combination with increasing concentrations of CH-11 or TRAIL to activate the extrinsic pathway or with VP-16 or staurosporine to activate the intrinsic pathway. Cell viability was measured 24 hours later by MTT assay. Cell viability is expressed as a mean percentage of untreated cells+SD(n=3).
Statistics. Cytotoxicity induced by compounds used in combination with conventional agents (e.g., CH-11, TRAIL, VP-16 and staurosporine) was evaluated for evidence of synergy toxicity by comparing the slopes of the dose-response curves. […]
The 9 compounds identified using anti-FAS antibody screening theoretically could non-specifically sensitize tumor cells to apoptotic stimuli or they could be selective for the extrinsic pathway. […] Accordingly, PPC-1 cells were treated with various concentrations of compounds with or without CH-11, TRAIL, VP-16, or STS, and 24 hours later, cell viability was measured by MTT assays.

[3] = system: FLIP; experiment: FLIP protein levels by SDS-PAGE/immunoblotting; format: cell-based, human; settings: PPC-1 cells
Protocol: FIG. 7. Effect of FAS-sensitizing compounds on levels of FLIP protein and DISC activation. (A) PPC-1 cells (2×10^5) were seeded into 35 mm plates and treated the next day with various FAS-sensitizing compounds (30 μM), with (+) or without (−) CH-11 antibody (100 ng/mL). As a positive control, cells were treated with CDDO (5 μM). Cell lysates were prepared 24 hours later, normalized for total protein content, and analyzed by SDS-PAGE/immunoblotting using antibodies specific for FLIP or a-tubulin. (B) PPC-1, OVCAR-3, T47D, MDA-MB-468 and DU 145 cells (2×10^5) were seeded into 35 mm plates and treated the next day with 5809354 (40 μM). Cell lysates were prepared 24 hours after treatment, normalized for total protein and analyzed by SDS-PAGE/immunoblotting using antibodies specific for FLIP or β-actin. (C) PPC-1, OVCAR-3, T47D, and DU 145 cells (2×10^5) were seeded into 35 mm plates and treated the next day with 5809354 (40 μM) (black bars) or buffer control (white bars). mRNA was extracted 24 hours after treatment. Levels of the long isoform of FLIP and GAPDH were detected by quantitative RT-PCR. Levels of FLIP were normalized for GAPDH expression and expressed as a mean fold change+SD over buffer treated cells. (D) PPC-1 cells (2×10^5) were seeded into 35 mm plates and treated the next day with various FAS-sensitizing compounds (30 μM) with (+) or without (−) CH-11 (100 ng/mL). Cell lysates were prepared 24 hours after treatment, normalized for total protein, and analyzed by SDS-PAGE/immunoblotting using antibodies specific for caspase-8 and β-actin.
(§1) FIG. 13. Small molecule down-regulation of FLIP sensitizes prostate cancer cells to anoikis. (A) PPC-1 cells were seeded overnight in adherent conditions and then treated with increasing concentrations of 5809354 for 16 hours. After incubation, cells were harvested. Total cellular RNA was extracted and mRNA levels of the long isoform of FLIP (FLIPL), the short isoform of FLIP (FLIPS), or rRNA levels of 18S were detected by real-time RT-PCR. Data were normalized using the ΔΔCT method and expressed as the mean±SEM percent of […] expression relative to untreated controls. (B) PPC-1 cells were cultured and treated as in panel A. Total cellular protein was isolated and analyzed by SDS-PAGE immunoblotting using anti-FLIP and anti-Actin antibodies. (C) PPC-1 cells were seeded overnight in adherent conditions and then exposed to increasing concentrations of 5809354 in the presence or absence of Fas-activating antibody (CH-11, 100 ng/mL). Thirty hours after incubation, cell viability was determined using the MTS assay. Data represents the mean±SEM of percent of viable cells. (D) PPC-1 cells were seeded overnight in adherent or suspension conditions and then treated with increasing concentrations of 5809354 for 30 hours. After incubation, apoptosis was measured by flow cytometry to detect cell surface annexin V expression and PI. Data represents the mean±SEM of percent of viable cells. (E) Cells were harvested, fixed, stained with DAPI, and nuclear morphology analyzed by fluorescence microscopy. Arrowheads refer to fragmented nuclei indicative of apoptosis. […] Thirty hours after incubation, cells were harvested and equal volumes plated in a colony formation assay. One week later, cells were stained with methylene blue and the number of colonies counted. Data represents the mean ±SEM percent of colonies relative to untreated controls.
Immunoblot analysis. Protein extracts were obtained by washing cells with phosphate-buffered saline (PBS) [pH 7.4] and suspending the cells in lysis buffer [10 mM Tris (pH 7.4), 150 mM NaCl, 0.1% Triton X-100, 0.5% sodium deoxycholate, and 5 mM EDTA] containing protease inhibitors (Complete tablets; Roche, Indianapolis, Ind.). Immunoblot assays were performed as described in Carter et al. (2005). […]

[4] = system: PPC-1 cells; experiment: MTT cell viability of PPC-1 cells treated with compound with or without CH-11 anti-FAS antibody; format: cell-based; settings: for IC50: read-out: LD50 (μM) PPCl
Protocol: FIGS. 2A-C. […] PPC-1 cells (1×10^4) were seeded in 96 well plates. The next day, cells were treated with increasing concentrations of the sensitizing compounds with (open squares) and without (closed squares) CH-11 antibody (100 ng/mL). Cell viability was measured 24 hours later by MTT assay. Cell viability is expressed as a mean percentage of untreated cells+SD (n=3). The Chembridge identification numbers of the compounds are provided.
High throughput screening. […] PPC-1 cells (1×10^4) were seeded overnight into 96 well, flat-bottom plates (Costar, Cambridge, Mass.) in 100 μL of medium containing 2.5% FCS. […] CH-11 antibody (100 ng/mL) was then added, and the cells were incubated for 24 hours before assessing cell viability by a 3-(4,5-Dimethylthiazol-2-yl)-2,5-diphenyltetrazolium Bromide (MTT) dye reduction assay (Sigma).
Cell death assays. […] Absorbance readings were plotted against a standard curve to derive the corresponding cell number, and cell viability was expressed as a percentage relative to untreated cells.

[5] = system: PPC-1 cells; experiment: Anoikis of PPC-1 cells in suspension versus adherent conditions (annexin V/PI, DAPI, colony formation); format: cell-based, human
Protocol: FIG. 12. Depletion of endogenous FLIP levels by siRNA sensitizes malignant cells to anoikis. (A) PPC-1 cells were seeded in adherent conditions overnight and then transfected with 25 nM anti-FLIP siRNA (siFLIP) or control luciferase siRNA (siCtrl). Thirty hours after transfection, cells were harvested, total protein isolated and analyzed by SDS-PAGE immunoblotting using anti-FLIP and anti-actin antibodies. (B) PPC-1 cells were transfected with increasing concentrations of siFLIP or siCtrl. After transfection, cells were treated with CH-11 Fas activating antibody (100 ng/ml). Thirty hours after incubation, cells were harvested and apoptosis measured by flow cytometry to detect cell surface annexin V expression and PI uptake. Data represents the mean±SEM percent of viable cells. (C) PPC-1 cells were transfected with increasing concentrations of siFLIP or siCtrl. After transfection, cells were subcultured under suspension conditions for 30 hours and then harvested. Apoptosis was measured by flow cytometry to detect cell surface annexin V expression and PI uptake. Data represents the mean±SEM of percent of viable cells. (D) Equal volumes of PPC-1 cells from panel C were replated under adherent conditions to permit clonogenic growth. One week after replating, cells were stained with methylene blue and the number of colonies counted. Data represents the mean±SEM percent of colonies compared to untreated controls.
as §1
FIG. 15. 5809354 sensitizes cells to anoikis through a caspase 8 dependent mechanism. (A) PPC-1 cells (5×10^4) were cultured under suspension conditions overnight and then treated with 5809354 in the presence or absence of the pan-caspase inhibitor z-VAD-fink (100 μM). Thirty hours after incubation, anoikis was determined by flow cytometry to detect cell surface annexin V expression and PI uptake. Data represents the mean±SEM percent of viable cells or colonies compared to untreated controls. (B) PPC-1 cells (5×10^4) were cultured in suspension conditions overnight and then treated with 5809354 (60 μM). […]

[6] = system: PPC-1 cells; experiment: MTS viability of adherent PPC-1 cells with or without CH-11, thirty hours; format: cell-based, human; settings: CH-11 100 ng/mL
Protocol: FIG. 13. Small molecule down-regulation of FLIP sensitizes prostate cancer cells to anoikis. (A) PPC-1 cells were seeded overnight in adherent conditions and then treated with increasing concentrations of 5809354 for 16 hours. After incubation, cells were harvested. Total cellular RNA was extracted and mRNA levels of the long isoform of FLIP (FLIPL), the short isoform of FLIP (FLIPS), or rRNA levels of 18S were detected by real-time RT-PCR. Data were normalized using the ΔΔCT method and expressed as the mean±SEM percent of […] expression relative to untreated controls. (B) PPC-1 cells were cultured and treated as in panel A. Total cellular protein was isolated and analyzed by SDS-PAGE immunoblotting using anti-FLIP and anti-Actin antibodies. […] Thirty hours after incubation, cell viability was determined using the MTS assay. […] After incubation, apoptosis was measured by flow cytometry to detect cell surface annexin V expression and PI. […] (E) Cells were harvested, fixed, stained with DAPI, and nuclear morphology analyzed by fluorescence microscopy. […] One week later, cells were stained with methylene blue and the number of colonies counted. […]
Cell viability apoptosis, colony formation, and caspase activation assays. Cell viability was assessed using the MTS reduction assay (Promega, Madison, Wis., USA) according to the manufacturer's protocols and as described in Schimmer et al. (2006). […]

Structure (SMILES): CC1(C)CC[C@]2(C(=O)O)CC[C@]3(C)[C@H](C(=O)C=C4[C@@]5(C)C=C(C#N)C(=O)C(C)(C)[C@@H]5CC[C@]43C)[C@@H]2C1 [CDDO, 2-cyano-3,12-dioxooleana-1,9-dien-28-oic acid]
- FLIP protein levels [1]: reduce FLIP protein levels

Structure (SMILES): C[n+]1ccn2c3c(c4cc(C5CCCCC5)ccc42)CCCc31.[I-] [compound 5362611, 8-Cyclohexyl-3-methyl-5,6-dihydro-4H-pyrazino[3,2,1-jk]carbazol-3-ium; iodide]
- sensitization to extrinsic versus intrinsic pathway stimuli [2]: sensitized to both the death receptor (extrinsic) and mitochondrial pathway (intrinsic) stimuli

Structure (SMILES): Cn1c(=N)n(CC(=O)c2cc(C(C)(C)C)c(O)c(C(C)(C)C)c2)c2ccccc21 [compound 5541203, 1-(3,5-di-tert-butyl-4-hydroxyphenyl)-2-(2-imino-3-methyl-2,3-dihydro-1H-benzo[d]imidazol-1-yl)ethanone hydrobromide]
- levels of FLIP protein ([3]; 30 μM, with or without CH-11, 24 hours, long isoform): had little effect
- IC50 ([4]; Homo sapiens, PPC-1, 24 h, PPC-1 cells, compound alone without CH-11, MTT 24 hours): 45 µM
- EC50 ([4]; Homo sapiens, PPC-1, with anti-FAS antibody, read-out: EC50 as a FAS-sensitizer in PPC1 cells): 25.7 µM
- LD50 (μM) (PPCl, CH-11) ([4]; PPC-1 cells with CH-11 100 ng/mL, MTT 24 hours, LD50 = concentration that reduces cell viability by 50%): 25.7 µM
- IC50 ([4]; PPC-1 cells, compound alone without CH-11, MTT 24 hours; hydrobromide)): 45.4 µM

Structure (SMILES): CCOCCCNC(=O)CCCOc1ccc(Cl)cc1C [compound 7271570, (4-(4-chloro-2-methylphenoxy))-N-(3-ethoxypropyl)-butanamide]
- FLIP protein expression ([3]; Example 2, increasing concentrations, 16 hours): failed to decrease FLIP levels
- sensitization to anoikis ([5]; suspension conditions, 30 hours): failed to sensitize
- colony formation after suspension culture ([5]; thirty hours in suspension, colonies counted one week later): inactive
- viability in the presence of Fas-activating antibody (CH-11) [6]: failed to sensitize
